These compounds were tested against T1, human PPARα-receptor (Homo sapiens, UniProt Q07869) (assay: Cellular transactivation assay (GAL4-PPARα chimera, luciferase reporter, CHO cells)). Details: CHO cells stably expressing GAL4-PPARα chimera and luciferase reporter; stimulation time 6 h.
T1 construct: expressed in transfected cells; host or cells: CHO (chinese hamster ovary) cells, stably transfected
T1 sequence (Q07869 167-468): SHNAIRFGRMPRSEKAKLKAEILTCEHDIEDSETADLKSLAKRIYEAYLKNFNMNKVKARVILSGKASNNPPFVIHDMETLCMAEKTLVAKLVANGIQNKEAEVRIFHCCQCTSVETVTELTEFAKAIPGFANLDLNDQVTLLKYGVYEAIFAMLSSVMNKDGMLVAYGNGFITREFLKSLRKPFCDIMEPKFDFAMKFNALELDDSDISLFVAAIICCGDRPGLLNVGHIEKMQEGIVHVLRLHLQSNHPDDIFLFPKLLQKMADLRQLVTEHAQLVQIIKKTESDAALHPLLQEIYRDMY
Format: cell-based
Source text: A cellular assay is used to identify activators of the peroxisome proliferator-activated receptor alpha (PPAR-alpha).
Since mammalian cells contain different endogenous nuclear receptors which can complicate unambiguous interpretation of the results, an established chimera system is used, in which the ligand binding domain of the human PPARα-receptor is fused to the DNA binding domain of the yeast transcription factors GAL4. The GAL4-PPARα chimera thus formed is co-transfected and expressed stably in CHO cells with a reporter construct.
The GAL4-PPARα expression construct contains the ligand binding domain of PPARα (amino acids 167-468), which is PCR-amplified and cloned into the vector pcDNA3.1. This vector already contains the GAL4 DNA binding domain (amino acids 1-147) of the vector pFC2-dbd (Stratagene). The reporter construct, which contains five copies of the GAL4 binding site upstream of a thymidine kinase promoter, leads to the expression of firefly luciferase (Photinus pyralis) after activation and binding of GAL4-PPARα.
The day before the test, CHO (chinese hamster ovary) cells which stably express the above-described GAL4-PPARα chimera and luciferase reporter gene construct are plated out in 96-hole microtiter plates with 1×10^3 cells in medium (Optimem, GIBCO), 2% activated carbon-purified fetal calf serum (Hyclone), 1.35 mM sodium pyruvate (GIBCO), 0.2% sodium bicarbonate (GIBCO), and kept in a cell incubator (air humidity 96%, 5% v/v CO2, 37° C.). On the day of the test, the substances to be tested are taken up in abovementioned medium, but without addition of calf serum, and added to the cells. After a stimulation time of 6 h, the luciferase activity is measured with the aid of a video camera. The relative light units measured give a sigmoid stimulation curve as a function of the substance concentration. The EC50 values are calculated with the aid of the computer program GraphPad PRISM (Version 3.02).

**Q.** Which EC50 does the source give for `Cc1ccc(-c2nc(Oc3ccccc3Cl)c(C(=O)O)cc2F)cc1F` [Example 36, 2-(2-Chlorophenoxy)-5-fluoro-6-(3-fluoro-4-methylphenyl)nicotinic acid] here?
**A.** The EC50 was 34 nM.

**Q.** How did the EC50 turn out when `O=C(O)c1ccc(-c2cccc(F)c2F)nc1Oc1ccccc1OC(F)(F)F` [Example 26, 2-(2-Trifluoromethoxyphenoxy)-6-(2,3-difluorophenyl)nicotinic acid] was run?
**A.** Its EC50 is 76 nM.

**Q.** `O=C(O)c1ccc(-c2ccc(Cl)nc2)nc1Oc1ccccc1Cl` [Example 16, 6′-Chloro-6-(2-chlorophenoxy)-2,3′-bipyridine-5-carboxylic acid] was tested. Which EC50 did it give?
**A.** The EC50 was 870 nM.

**Q.** `Cc1cc(-c2ccc(C(=O)O)c(Oc3ccccc3Cl)n2)ccc1F` [Example 4, 2-(2-Chlorophenoxy)-6-(4-fluoro-3-methylphenyl)nicotinic acid] was tested. Which EC50 did it give?
**A.** Its EC50 is 157 nM.

**Q.** For `Cc1ccc(-c2ccc(C(=O)O)c(Oc3ccccc3Cl)n2)cc1F` [Example 5, 2-(2-Chlorophenoxy)-6-(3-fluoro-4-methylphenyl)nicotinic acid], which EC50 is on record?
**A.** The EC50 was 33 nM.

**Q.** For `COc1cccc(-c2cc(C(F)(F)F)c(C(=O)O)c(Oc3ccccc3Cl)n2)c1F` [Example 42, 2-(2-Chlorophenoxy)-6-(2-fluoro-3-methoxyphenyl)-4-trifluoromethylnicotinic acid], which EC50 is on record?
**A.** The EC50 was 541 nM.

**Q.** With `Cc1ccc(-c2cc(C(F)(F)F)c(C(=O)O)c(Oc3ccccc3Cl)n2)cc1F` [Example 11, 2-(2-Chlorophenoxy)-6-(3-fluoro-4-methylphenyl)-4-(trifluoromethyl)nicotinic acid] as the compound, how does the EC50 read?
**A.** The EC50 was 14 nM.

**Q.** `N#Cc1ccc(Cl)c(Oc2nc(-c3cc(F)cc(F)c3)ccc2C(=O)O)c1` [Example 17, 2-(2-Chloro-5-cyanophenoxy)-6-(3,5-difluorophenyl)nicotinic acid] was tested. Which EC50 did it give?
**A.** Its EC50 is 69 nM.

**Q.** For `O=C(O)c1cc(F)c(-c2ccc(C(F)(F)F)cc2)nc1Oc1ccccc1Cl` [Example 38, 2-(2-Chlorophenoxy)-5-fluoro-6-(4-trifluoromethylphenyl)nicotinic acid], which EC50 is on record?
**A.** The EC50 was 360 nM.
